For orientation: IC50 means the concentration that gives 50% inhibition.

The target in experiment [1] is T1, 3',5'-cyclic-AMP phosphodiesterase 4B (Homo sapiens, UniProt Q07343). The experiment can be described thus: Inhibition of human PDE4B.
The species named for experiment [2] is Homo sapiens. Put plainly: Selectivity index, ratio of IC50 for human PDE4D to IC50 for human PDE4B.
For experiment [3], the target named is T2, 3',5'-cyclic-AMP phosphodiesterase 4D (Homo sapiens, UniProt Q08499). Put plainly: Inhibition of human PDE4D.
T2 sequence (Q08499 whole entry): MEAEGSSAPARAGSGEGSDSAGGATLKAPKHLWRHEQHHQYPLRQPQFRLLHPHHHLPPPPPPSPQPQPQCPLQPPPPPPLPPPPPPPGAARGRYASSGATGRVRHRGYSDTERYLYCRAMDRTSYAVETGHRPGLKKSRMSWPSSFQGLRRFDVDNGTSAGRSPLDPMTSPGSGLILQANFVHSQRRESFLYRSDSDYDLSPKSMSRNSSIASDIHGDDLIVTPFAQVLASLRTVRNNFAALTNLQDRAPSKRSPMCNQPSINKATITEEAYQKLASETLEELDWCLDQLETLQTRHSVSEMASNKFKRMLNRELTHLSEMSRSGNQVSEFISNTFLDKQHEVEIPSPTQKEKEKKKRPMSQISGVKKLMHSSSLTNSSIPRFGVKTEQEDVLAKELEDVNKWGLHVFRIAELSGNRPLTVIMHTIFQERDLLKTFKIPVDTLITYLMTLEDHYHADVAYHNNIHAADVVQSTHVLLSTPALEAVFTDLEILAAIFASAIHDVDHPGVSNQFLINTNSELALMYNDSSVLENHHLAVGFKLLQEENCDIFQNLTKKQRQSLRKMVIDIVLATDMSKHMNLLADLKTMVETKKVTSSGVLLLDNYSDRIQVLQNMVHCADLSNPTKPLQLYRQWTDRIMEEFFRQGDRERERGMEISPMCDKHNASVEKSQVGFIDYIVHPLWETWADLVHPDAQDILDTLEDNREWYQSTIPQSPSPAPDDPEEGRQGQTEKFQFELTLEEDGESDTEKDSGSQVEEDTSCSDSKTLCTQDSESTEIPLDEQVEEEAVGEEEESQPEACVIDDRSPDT
Experiment [4] has as its target T1, 3',5'-cyclic-AMP phosphodiesterase 4B. Put plainly: Inhibition of human PDE4B1.
In experiment [5] the target is T2, 3',5'-cyclic-AMP phosphodiesterase 4D. Put plainly: Inhibition of human PDE4D7.

T1 sequence (Q07343 whole entry): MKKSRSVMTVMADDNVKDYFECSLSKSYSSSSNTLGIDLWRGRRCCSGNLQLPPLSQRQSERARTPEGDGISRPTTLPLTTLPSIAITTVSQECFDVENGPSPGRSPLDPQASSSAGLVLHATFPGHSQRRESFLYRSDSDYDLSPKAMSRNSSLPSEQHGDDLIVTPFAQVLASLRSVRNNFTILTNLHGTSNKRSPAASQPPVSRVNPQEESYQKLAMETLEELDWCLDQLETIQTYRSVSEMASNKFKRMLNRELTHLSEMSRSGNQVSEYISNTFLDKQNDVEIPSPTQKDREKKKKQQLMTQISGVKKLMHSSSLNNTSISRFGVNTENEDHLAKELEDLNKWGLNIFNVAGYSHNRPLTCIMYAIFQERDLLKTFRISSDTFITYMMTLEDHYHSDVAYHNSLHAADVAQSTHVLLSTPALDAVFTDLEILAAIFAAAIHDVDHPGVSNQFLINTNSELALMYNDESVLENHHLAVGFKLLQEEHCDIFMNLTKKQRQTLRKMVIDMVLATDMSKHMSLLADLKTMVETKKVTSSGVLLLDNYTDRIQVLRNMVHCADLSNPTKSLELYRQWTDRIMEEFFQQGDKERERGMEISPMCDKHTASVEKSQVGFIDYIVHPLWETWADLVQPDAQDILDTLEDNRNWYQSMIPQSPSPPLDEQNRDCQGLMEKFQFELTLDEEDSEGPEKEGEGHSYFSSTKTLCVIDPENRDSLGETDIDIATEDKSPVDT

Turning to `Cc1nc(Nc2ccc(CC(=O)O)cc2)nc(-c2ccc(Cl)s2)n1`, in experiment [1] (read-out: IC50), the half-maximal inhibitory concentration (IC50) was found to be 1.29 µM.

As to `CCc1nc(Nc2ccc(NS(N)(=O)=O)cc2)nc(-c2cccc(Cl)c2)n1`, the Ratio IC50 in experiment [2] turned out to be 0.4. The IC50 in experiment [1] (read-out: IC50) came out at 0.402 µM; in experiment [3] (read-out: IC50) it was 0.16 µM.

For `CCCc1nc(Nc2ccc(CC(=O)O)cc2)nc(-c2ccc(Cl)s2)n1`, in experiment [1] (read-out: IC50), the half-maximal inhibitory concentration (IC50) amounted to 2.45 µM.

In the case of `CCc1nc(Nc2ccc(CC(=O)O)cc2)nc(-c2ccc(F)cc2)n1`, the Ratio IC50 in experiment [2] stood at 0.5. The values for the IC50 in experiment [1] (read-out: IC50) and in experiment [3] (read-out: IC50) were 1.46 µM and 0.727 µM, respectively.

In the case of `O=C(O)Cc1ccc(Nc2nc(-c3cccc(Cl)c3)nc(C3CC3)n2)cc1`, the Ratio IC50 in experiment [2] stood at 5. In addition, the 50% inhibitory concentration (IC50) in experiment [1] (read-out: IC50) came out at 0.237 µM; in experiment [3] (read-out: IC50) it was 1.18 µM.

In the case of `CCc1nc(Nc2ccc(F)cc2)nc(-c2ccc(Cl)s2)n1`, in experiment [2], the Ratio IC50 was 0.15. In addition, the values for the concentration for half-maximal inhibition (IC50) in experiment [1] (read-out: IC50) and in experiment [3] (read-out: IC50) were 1.39 µM and 0.207 µM, respectively.

Take `O=C(O)c1ccc(Nc2nc(-c3cccc(Cl)c3)nc(C3CC3)n2)cc1`: in experiment [2], the Ratio IC50 came out at 0.4. Besides, the values for the IC50 in experiment [1] (read-out: IC50) and in experiment [3] (read-out: IC50) were 0.046 µM and 0.02 µM, respectively.

Consider `CCc1nc(Nc2ccc(CC(=O)O)cc2)nc(-c2ccc(Cl)s2)n1`, for which the Ratio IC50 in experiment [2] was determined as 2.3. The IC50 in experiment [1] (read-out: IC50) is 0.383 µM; in experiment [3] (read-out: IC50), 0.865 µM.

With `Cc1nc(Nc2ccc(C(=O)O)cc2)nc(-c2ccc(Cl)s2)n1`, the IC50 in experiment [1] (read-out: IC50) turned out to be 4.05 µM.

Turning to `O=C(O)Cc1ccc(CNc2nc(-c3ccc(Cl)cc3)nc(C3CC3)n2)cc1`, in experiment [2], the Ratio IC50 came out at 0.38. In addition, the concentration for half-maximal inhibition (IC50) in experiment [1] (read-out: IC50) came to 2.28 µM; in experiment [3] (read-out: IC50), 0.859 µM.

Turning to `CC(C)c1nc(Nc2ccc(C(=O)O)cc2)nc(-c2ccc(Cl)s2)n1`, in experiment [2], the Ratio IC50 worked out at 1. The IC50 in experiment [1] (read-out: IC50) came out at 0.22 µM; in experiment [3] (read-out: IC50), 0.219 µM.

In the case of `CCOc1nc(Nc2ccc(OC)cc2)nc(OCC)n1`, the IC50 in experiment [4] came to 6.7 µM; in experiment [5] it was 2.3 µM.

Turning to `CCc1nc(Nc2ccc(Cc3nnn[nH]3)cc2)nc(-c2cccc(Cl)c2)n1`, the Ratio IC50 in experiment [2] came to 0.9. Further, the IC50 in experiment [1] (read-out: IC50) is 0.069 µM; in experiment [3] (read-out: IC50), 0.063 µM.

As for `O=C1NCCN1c1ccc(Nc2nc(-c3cccc(Cl)c3)nc(C3CC3)n2)cc1`, the IC50 result in experiment [1] and in experiment [3] was “Not Active” in each case.

For the compound `CCc1nc(Nc2ccc(C#N)cc2)nc(-c2cccc(Cl)c2)n1`, in experiment [2], the Ratio IC50 turned out to be 1.1. Further, the IC50 is 0.012 µM in experiment [1] (read-out: IC50) and 0.013 µM in experiment [3] (read-out: IC50).

As to `CCc1nc(Nc2ccc(C(=O)O)cc2)nc(-c2ccc(Cl)s2)n1`, in experiment [2], the Ratio IC50 stood at 1. The concentration for half-maximal inhibition (IC50) in experiment [1] (read-out: IC50) turned out to be 0.261 µM; in experiment [3] (read-out: IC50) it was 0.251 µM.

`CC(C)c1nc(Nc2ccc(CC(=O)O)cc2)nc(-c2ccc(Cl)s2)n1`: the Ratio IC50 in experiment [2] was found to be 1.8. Also, the IC50 stood at 1.94 µM in experiment [1] (read-out: IC50) and 3.58 µM in experiment [3] (read-out: IC50).

As for `Cc1nc(Nc2ccc(CC(=O)O)cc2)nc(-c2ccco2)n1`, in experiment [2], the Ratio IC50 came out at 1.2. For the same compound, the half-maximal inhibitory concentration (IC50) is 18.8 µM in experiment [1] (read-out: IC50) and 22.3 µM in experiment [3] (read-out: IC50).

As to `O=C(O)Cc1ccc(CNc2nc(-c3cccc(Cl)c3)nc(C3CC3)n2)cc1`, the Ratio IC50 in experiment [2] is 0.86. The 50% inhibitory concentration (IC50) in experiment [1] (read-out: IC50) was 0.845 µM; in experiment [3] (read-out: IC50), 0.726 µM.

`CCc1c(C)nc(-c2ccc(Cl)s2)nc1Nc1ccc(CC(=O)O)cc1`: the IC50 in experiment [4] stood at 0.055 µM; in experiment [5], 2 µM.

In the case of `CCc1nc(Nc2ccc(CC(=O)O)cc2)nc(-c2ccoc2)n1`, the IC50 in experiment [1] (read-out: IC50) came out at 2.78 µM.

As to `O=C(O)Cc1ccc(Nc2nc(-c3ccc(Cl)s3)nc(C3CC3)n2)cc1`, the Ratio IC50 in experiment [2] was 5.9. Besides, the IC50 in experiment [1] (read-out: IC50) worked out at 0.251 µM; in experiment [3] (read-out: IC50) it was 1.49 µM.

Consider `CC(C)c1nc(Nc2ccc(F)cc2)nc(-c2ccc(Cl)s2)n1`, for which the half-inhibitory concentration (IC50) is 8.81 µM in experiment [1] (read-out: IC50) and 0.886 µM in experiment [3] (read-out: IC50).

`O=C(O)c1ccc(Nc2nc(-c3ccc(Cl)cc3)nc(C3CC3)n2)cc1`: the Ratio IC50 in experiment [2] worked out at 2. Moreover, the IC50 in experiment [1] (read-out: IC50) turned out to be 0.135 µM; in experiment [3] (read-out: IC50), 0.268 µM.

In the case of `O=C(O)Cc1ccc(Nc2nc(-c3ccc(Cl)cc3)nc(C3CC3)n2)cc1`, in experiment [2], the Ratio IC50 is 1.5. The IC50 in experiment [1] (read-out: IC50) worked out at 3.77 µM; in experiment [3] (read-out: IC50), 5.61 µM.

As for `O=C1CCC(NC2=NC(C3CC3)NC(c3cccc(Cl)c3)=N2)CN1` (stereo not given), the Ratio IC50 in experiment [2] was 2. Further, the half-inhibitory concentration (IC50) in experiment [1] (read-out: IC50) came out at 0.135 µM; in experiment [3] (read-out: IC50), 0.268 µM.

Take `CCc1nc(Nc2ccc(C(C)C(=O)O)cc2)nc(-c2cccc(Cl)c2)n1` (stereo not given): the Ratio IC50 in experiment [2] was 0.09. For the same compound, the results for the half-maximal inhibitory concentration (IC50) in experiment [1] (read-out: IC50) and in experiment [3] (read-out: IC50) were 1.09 µM and 0.096 µM, respectively.

Regarding `O=C(O)Cc1ccc(Nc2nc(-c3cccc(F)c3)nc(C3CC3)n2)cc1`, the Ratio IC50 in experiment [2] is 1.5. Further, the 50% inhibitory concentration (IC50) amounted to 1.44 µM in experiment [1] (read-out: IC50) and 2.11 µM in experiment [3] (read-out: IC50).

On to `CCc1nc(Nc2ccc(C(=O)O)cc2)nc(-c2cccc(Cl)c2)n1`, for which the Ratio IC50 in experiment [2] was found to be 0.9. Besides, the values for the 50% inhibitory concentration (IC50) in experiment [1] (read-out: IC50) and in experiment [3] (read-out: IC50) were 0.241 µM and 0.213 µM, respectively.

For `CCc1nc(Nc2ccc(C(C)(C)C(=O)O)cc2)nc(-c2cccc(Cl)c2)n1`, the Ratio IC50 in experiment [2] amounted to 0.4. Besides, the half-maximal inhibitory concentration (IC50) was determined as 1.57 µM in experiment [1] (read-out: IC50) and 0.6 µM in experiment [3] (read-out: IC50).

Turning to `CCc1nc(Nc2ccc(-c3nn[nH]n3)cc2)nc(-c2cccc(Cl)c2)n1`, the 50% inhibitory concentration (IC50) was 0.126 µM in experiment [1] (read-out: IC50) and 0.132 µM in experiment [3] (read-out: IC50).

On to `O=C(O)Cc1ccc(Oc2nc(-c3cccc(Cl)c3)nc(C3CC3)n2)cc1`, for which the Ratio IC50 in experiment [2] was 1.2. In addition, the half-maximal inhibitory concentration (IC50) in experiment [1] (read-out: IC50) was 1.86 µM; in experiment [3] (read-out: IC50), 2.27 µM.

As to `CCc1nc(Nc2ccc(-c3nnn[nH]3)cc2)nc(-c2cccc(Cl)c2)n1`, the Ratio IC50 in experiment [2] came out at 1.

With `CCc1nc(Nc2ccc(CC(=O)O)cc2)nc(-c2cccc(Cl)c2)n1`, the Ratio IC50 in experiment [2] was found to be 0.9. Besides, the concentration for half-maximal inhibition (IC50) in experiment [1] (read-out: IC50) came out at 0.781 µM; in experiment [3] (read-out: IC50), 0.681 µM.

For the compound `CCc1nc(Nc2ccc(CC#N)cc2)nc(-c2cccc(Cl)c2)n1`, the Ratio IC50 in experiment [2] came out at 0.04. Also, the 50% inhibitory concentration (IC50) in experiment [1] (read-out: IC50) came to 0.165 µM; in experiment [3] (read-out: IC50) it was 0.007 µM.
